Assay results reported in ChEMBL document CHEMBL5316381, “Discovery of [1,2,3]Triazolo[4,5-c]quinoline Derivatives as a New Class of Ataxia-Telangiectasia Mutated Kinase Inhibitors” (ACS Med Chem Lett, 2023).
Active and inactive are the calls of the source. No cut-off for these calls is given here.

Experiments:
[1] = target: T1, Serine-protein kinase ATM (Homo sapiens, UniProt Q13315); experiment: Inhibition of ATM (unknown origin) using GST-cMyc-p53 as substrate incubated for 30 mins in presence of Mg/ATP mix by HTRF-based analysis
[2] = target: T1, Serine-protein kinase ATM; experiment: Inhibition of ATM phosphorylation in human SW620 cells with IR-induced DNA damage assessed as fold change in phosphorylated ATM protein level at 83 nM in the presence of 3 Gy irradiation by Western blot analysis relative to control; type: cell-based
[3] = target: Serine/threonine-protein kinase Chk2 (Homo sapiens) (UniProt O96017); experiment: Inhibition of Chk2 phosphorylation in human SW620 cells with IR-induced DNA damage assessed as fold change in phosphorylated Chk2 protein level at 83 nM in the presence of 3 Gy irradiation by Western blot analysis relative to control; type: cell-based
[4] = target: Serine/threonine-protein kinase Chk2 (Homo sapiens) (UniProt O96017); experiment: Inhibition of CPT-11 induced Chk2 phosphorylation in human SW620 cells assessed as fold change in phosphorylated chk2 protein level at 10 nM by SDS-PAGE based Western blot analysis relative to control; type: cell-based
[5] = target: Serine/threonine-protein kinase Chk2 (Homo sapiens) (UniProt O96017); experiment: Inhibition of Chk2 phosphorylation in human SW620 cells with IR-induced DNA damage assessed as fold change in phosphorylated Chk2 protein level at 27 nM in the presence of 1.5 Gy irradiation by Western blot analysis relative to control; type: cell-based
[6] = target: Serine/threonine-protein kinase Chk2 (Homo sapiens) (UniProt O96017); experiment: Inhibition of Chk2 phosphorylation in human SW620 cells with IR-induced DNA damage assessed as fold change in phosphorylated Chk2 protein level at 250 nM in the presence of 3 Gy irradiation by Western blot analysis relative to control; type: cell-based
[7] = target: Serine/threonine-protein kinase Chk2 (Homo sapiens) (UniProt O96017); experiment: Inhibition of Chk2 phosphorylation in human SW620 cells with IR-induced DNA damage assessed as fold change in phosphorylated Chk2 protein level at 250 nM in the presence of 1.5 Gy irradiation by Western blot analysis relative to control; type: cell-based
SW-620 [8] = experiment: Radiosensitizing activity against human SW620 cells assessed as reduction in colony formation at 27 nM incubated after 14 days in the presence of 3 Gy irradiation by crystal violet staining based analysis; type: functional, cell-based; settings: time 14.0 day
SW-620 [9] = experiment: Antiproliferative activity against human SW620 cells assessed as reduction in colony formation at 9 nM measured after 14 days by crystal violet staining based microscopic analysis; type: functional, cell-based; settings: time 14.0 day
[10] = target: Serine/threonine-protein kinase Chk2 (Homo sapiens) (UniProt O96017); experiment: Inhibition of Chk2 phosphorylation in human SW620 cells with IR-induced DNA damage assessed as fold change in phosphorylated Chk2 protein level at 27 nM in the presence of 3 Gy irradiation by Western blot analysis relative to control; type: cell-based
[11] = target: T1, Serine-protein kinase ATM; experiment: Inhibition of ATM phosphorylation in human SW620 cells with IR-induced DNA damage assessed as fold change in phosphorylated ATM protein level at 27 nM in the presence of 3 Gy irradiation by Western blot analysis relative to control; type: cell-based
SW-620 [12] = experiment: Antiproliferative activity against human SW620 cells assessed as reduction in colony formation at 27 nM measured after 14 days by crystal violet staining based microscopic analysis; type: functional, cell-based; settings: time 14.0 day
[13] = target: T1, Serine-protein kinase ATM; experiment: Inhibition of ATM phosphorylation in human SW620 cells with IR-induced DNA damage assessed as fold change in phosphorylated ATM protein level at 3 nM in the presence of 3 Gy irradiation by Western blot analysis relative to control; type: cell-based
[14] = target: Serine/threonine-protein kinase Chk2 (Homo sapiens) (UniProt O96017); experiment: Inhibition of Chk2 phosphorylation in human SW620 cells with IR-induced DNA damage assessed as fold change in phosphorylated Chk2 protein level at 9 nM in the presence of 1.5 Gy irradiation by Western blot analysis relative to control; type: cell-based
[15] = target: Serine/threonine-protein kinase Chk2 (Homo sapiens) (UniProt O96017); experiment: Inhibition of Chk2 phosphorylation in human SW620 cells with IR-induced DNA damage assessed as fold change in phosphorylated Chk2 protein level at 3 nM in the presence of 3 Gy irradiation by Western blot analysis relative to control; type: cell-based
[16] = target: Serine/threonine-protein kinase Chk2 (Homo sapiens) (UniProt O96017); experiment: Inhibition of Chk2 phosphorylation in human SW620 cells with IR-induced DNA damage assessed as fold change in phosphorylated Chk2 protein level at 9 nM in the presence of 3 Gy irradiation by Western blot analysis relative to control; type: cell-based
SW-620 [17] = experiment: Radiosensitizing activity against human SW620 cells assessed as reduction in colony formation at 9 nM incubated after 14 days in the presence of 1.5 Gy irradiation by crystal violet staining based analysis; type: functional, cell-based; settings: time 14.0 day
[18] = target: Serine/threonine-protein kinase Chk2 (Homo sapiens) (UniProt O96017); experiment: Inhibition of CPT-11 induced Chk2 phosphorylation in human SW620 cells assessed as fold change in phosphorylated chk2 protein level at 3 nM by SDS-PAGE based Western blot analysis relative to control; type: cell-based
[19] = target: T1, Serine-protein kinase ATM; experiment: Inhibition of ATM phosphorylation in human SW620 cells with IR-induced DNA damage assessed as fold change in phosphorylated ATM protein level at 250 nM in the presence of 3 Gy irradiation by Western blot analysis relative to control; type: cell-based
[20] = target: Serine/threonine-protein kinase Chk2 (Homo sapiens) (UniProt O96017); experiment: Inhibition of Chk2 phosphorylation in human SW620 cells with IR-induced DNA damage assessed as fold change in phosphorylated Chk2 protein level at 3 nM in the presence of 1.5 Gy irradiation by Western blot analysis relative to control; type: cell-based
SW-620 [21] = experiment: Radiosensitizing activity against human SW620 cells assessed as reduction in colony formation at 27 nM incubated after 14 days in the presence of 1.5 Gy irradiation by crystal violet staining based analysis; type: functional, cell-based; settings: time 14.0 day
[22] = target: Serine/threonine-protein kinase Chk2 (Homo sapiens) (UniProt O96017); experiment: Inhibition of CPT-11 induced Chk2 phosphorylation in human SW620 cells by SDS-PAGE based Westernblot analysis; type: cell-based
[23] = target: Serine/threonine-protein kinase Chk2 (Homo sapiens) (UniProt O96017); experiment: Inhibition of CPT-11 induced Chk2 phosphorylation in human SW620 cells assessed as fold change in phosphorylated chk2 protein level at 1 nM by SDS-PAGE based Western blot analysis relative to control; type: cell-based
SW-620 [24] = experiment: Radiosensitizing activity against human SW620 cells assessed as reduction in colony formation at 9 nM incubated after 14 days in the presence of 3 Gy irradiation by crystal violet staining based analysis; type: functional, cell-based; settings: time 14.0 day
[25] = target: T1, Serine-protein kinase ATM; experiment: Inhibition of ATM phosphorylation in human SW620 cells with IR-induced DNA damage assessed as fold change in phosphorylated ATM protein level at 9 nM in the presence of 3 Gy irradiation by Western blot analysis relative to control; type: cell-based
[26] = target: Serine/threonine-protein kinase Chk2 (Homo sapiens) (UniProt O96017); experiment: Inhibition of Chk2 phosphorylation in human SW620 cells with IR-induced DNA damage assessed as fold change in phosphorylated Chk2 protein level at 83 nM in the presence of 1.5 Gy irradiation by Western blot analysis relative to control; type: cell-based
[27] = target: Serine/threonine-protein kinase Chk2 (Homo sapiens) (UniProt O96017); experiment: Inhibition of CPT-11 induced Chk2 phosphorylation in human SW620 cells assessed as fold change in phosphorylated chk2 protein level at 30 nM by SDS-PAGE based Western blot analysis relative to control; type: cell-based
SW-620 [28] = experiment: Induction of apoptosis in human SW620 cells assessed as late apoptotic cells at 1 uM measured after 72 hrs by Annexin V-FITC staining based flow cytometric analysis (reference value: 5.75%); type: functional
HCT-116 = experiment: Anticancer activity against human HCT-116 cells assessed as reduction in cell viability incubated for 5 days by MTT assay; type: functional, cell-based; settings: HCT-116, 120 h
SW-620 [29] = experiment: Induction of apoptosis in human SW620 cells assessed as early apoptotic cells at 1 uM measured after 72 hrs by Annexin V-FITC staining based flow cytometric analysis (reference value: 1.06%); type: functional
SW-620 [30] = experiment: Anticancer activity against human SW620 cells assessed as reduction in cell viability incubated for 5 days by MTT assay; type: functional, cell-based; settings: SW-620, 120 h
SW-620 [31] = experiment: Cell cycle arrest in human SW620 cells assessed as accumulation of cells at G2/M phase at 1 uM incubated for 24 hrs by PI staining based flow cytometric analysis; type: functional
SW-620 [32] = experiment: Induction of apoptosis in human SW620 cells assessed as viable cells at 1 uM measured after 72 hrs by Annexin V-FITC staining based flow cytometric analysis (reference value: 87.36%); type: functional; settings: read-out: Activity
[33] = target: T1, Serine-protein kinase ATM; experiment: Inhibition of ATM in human SW620 cells assessed as increase in gamma H2AX foci at 1 uM incubated for 24 hrs by confocal microscopic analysis; type: cell-based
SW-620 [34] = experiment: Induction of apoptosis in human SW620 cells assessed as necrotic cells at 1 uM measured after 72 hrs by Annexin V-FITC staining based flow cytometric analysis (reference value: 5.83%); type: functional

T1 sequence (Q13315 whole entry): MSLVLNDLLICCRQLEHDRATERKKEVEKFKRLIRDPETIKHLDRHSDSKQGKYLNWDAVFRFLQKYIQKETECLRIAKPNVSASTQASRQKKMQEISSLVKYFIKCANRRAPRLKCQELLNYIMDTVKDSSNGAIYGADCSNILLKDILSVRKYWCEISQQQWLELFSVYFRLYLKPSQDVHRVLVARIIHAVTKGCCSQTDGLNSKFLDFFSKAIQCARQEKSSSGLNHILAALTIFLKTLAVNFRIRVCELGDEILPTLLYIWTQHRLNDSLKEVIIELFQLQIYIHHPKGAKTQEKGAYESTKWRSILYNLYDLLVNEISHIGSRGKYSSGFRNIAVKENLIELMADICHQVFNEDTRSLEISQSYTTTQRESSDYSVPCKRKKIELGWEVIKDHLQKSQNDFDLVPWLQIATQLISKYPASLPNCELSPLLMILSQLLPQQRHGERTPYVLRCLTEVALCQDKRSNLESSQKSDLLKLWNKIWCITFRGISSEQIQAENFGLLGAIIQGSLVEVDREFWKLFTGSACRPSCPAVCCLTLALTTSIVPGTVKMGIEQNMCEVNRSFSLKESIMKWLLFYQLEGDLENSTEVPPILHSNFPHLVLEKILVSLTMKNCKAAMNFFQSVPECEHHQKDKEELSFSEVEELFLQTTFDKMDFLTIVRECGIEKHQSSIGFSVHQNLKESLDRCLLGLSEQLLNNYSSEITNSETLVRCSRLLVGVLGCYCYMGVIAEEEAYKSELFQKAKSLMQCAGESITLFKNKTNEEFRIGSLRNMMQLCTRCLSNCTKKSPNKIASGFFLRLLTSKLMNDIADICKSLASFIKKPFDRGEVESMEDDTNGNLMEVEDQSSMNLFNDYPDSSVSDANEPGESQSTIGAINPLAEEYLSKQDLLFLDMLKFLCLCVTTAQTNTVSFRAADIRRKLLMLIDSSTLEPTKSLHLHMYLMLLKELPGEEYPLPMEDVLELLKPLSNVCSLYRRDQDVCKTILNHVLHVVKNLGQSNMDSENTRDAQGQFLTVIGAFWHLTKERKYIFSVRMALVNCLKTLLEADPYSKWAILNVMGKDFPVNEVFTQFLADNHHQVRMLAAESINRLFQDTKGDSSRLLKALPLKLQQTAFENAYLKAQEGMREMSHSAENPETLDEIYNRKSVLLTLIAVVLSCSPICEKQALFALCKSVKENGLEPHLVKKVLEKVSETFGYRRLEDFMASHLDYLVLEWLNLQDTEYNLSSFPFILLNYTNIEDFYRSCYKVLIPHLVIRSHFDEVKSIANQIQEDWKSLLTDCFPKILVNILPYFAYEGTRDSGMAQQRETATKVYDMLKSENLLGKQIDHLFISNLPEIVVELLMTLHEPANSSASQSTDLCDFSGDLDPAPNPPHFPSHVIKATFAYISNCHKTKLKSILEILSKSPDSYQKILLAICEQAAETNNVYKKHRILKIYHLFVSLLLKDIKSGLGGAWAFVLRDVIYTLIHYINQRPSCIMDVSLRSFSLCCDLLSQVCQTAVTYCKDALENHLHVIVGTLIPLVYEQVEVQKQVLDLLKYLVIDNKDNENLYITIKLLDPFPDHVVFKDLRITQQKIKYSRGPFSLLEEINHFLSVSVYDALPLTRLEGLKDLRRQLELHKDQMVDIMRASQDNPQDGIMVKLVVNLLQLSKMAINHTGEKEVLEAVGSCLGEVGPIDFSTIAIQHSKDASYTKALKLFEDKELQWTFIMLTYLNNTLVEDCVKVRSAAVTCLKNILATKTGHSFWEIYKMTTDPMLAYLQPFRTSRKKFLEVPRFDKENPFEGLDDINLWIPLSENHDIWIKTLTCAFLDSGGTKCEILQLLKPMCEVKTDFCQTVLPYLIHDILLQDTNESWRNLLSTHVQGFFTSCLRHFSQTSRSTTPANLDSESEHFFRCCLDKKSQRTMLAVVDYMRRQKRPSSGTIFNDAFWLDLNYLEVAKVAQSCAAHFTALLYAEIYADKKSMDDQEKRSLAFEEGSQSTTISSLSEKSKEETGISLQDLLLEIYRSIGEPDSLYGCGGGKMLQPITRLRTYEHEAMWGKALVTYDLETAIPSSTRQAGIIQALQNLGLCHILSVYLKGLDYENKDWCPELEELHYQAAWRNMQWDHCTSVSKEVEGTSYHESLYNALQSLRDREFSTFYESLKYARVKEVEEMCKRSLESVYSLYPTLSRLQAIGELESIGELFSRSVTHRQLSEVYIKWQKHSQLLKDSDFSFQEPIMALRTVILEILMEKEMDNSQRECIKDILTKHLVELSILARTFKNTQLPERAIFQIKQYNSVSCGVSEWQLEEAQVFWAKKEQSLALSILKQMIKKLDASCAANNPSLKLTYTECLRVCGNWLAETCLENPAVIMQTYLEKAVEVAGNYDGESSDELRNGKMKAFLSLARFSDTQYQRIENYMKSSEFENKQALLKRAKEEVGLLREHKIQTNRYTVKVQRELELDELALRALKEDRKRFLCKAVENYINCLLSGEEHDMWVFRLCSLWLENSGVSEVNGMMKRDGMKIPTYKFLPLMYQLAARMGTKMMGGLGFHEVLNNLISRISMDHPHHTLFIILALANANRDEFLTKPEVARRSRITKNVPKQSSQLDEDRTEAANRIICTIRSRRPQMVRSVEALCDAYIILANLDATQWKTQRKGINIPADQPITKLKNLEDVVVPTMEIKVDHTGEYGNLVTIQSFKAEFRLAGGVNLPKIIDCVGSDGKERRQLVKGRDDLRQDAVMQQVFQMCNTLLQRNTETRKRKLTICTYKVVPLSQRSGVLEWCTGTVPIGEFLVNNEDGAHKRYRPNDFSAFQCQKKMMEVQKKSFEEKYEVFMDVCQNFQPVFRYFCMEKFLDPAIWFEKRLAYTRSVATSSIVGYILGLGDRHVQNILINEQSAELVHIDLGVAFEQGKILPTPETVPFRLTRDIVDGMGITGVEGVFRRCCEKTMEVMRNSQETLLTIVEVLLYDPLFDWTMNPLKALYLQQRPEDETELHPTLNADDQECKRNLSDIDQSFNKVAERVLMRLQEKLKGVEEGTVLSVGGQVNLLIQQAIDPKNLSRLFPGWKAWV
Chain of Serine/threonine-protein kinase Chk2 (Homo sapiens) (O96017 whole entry): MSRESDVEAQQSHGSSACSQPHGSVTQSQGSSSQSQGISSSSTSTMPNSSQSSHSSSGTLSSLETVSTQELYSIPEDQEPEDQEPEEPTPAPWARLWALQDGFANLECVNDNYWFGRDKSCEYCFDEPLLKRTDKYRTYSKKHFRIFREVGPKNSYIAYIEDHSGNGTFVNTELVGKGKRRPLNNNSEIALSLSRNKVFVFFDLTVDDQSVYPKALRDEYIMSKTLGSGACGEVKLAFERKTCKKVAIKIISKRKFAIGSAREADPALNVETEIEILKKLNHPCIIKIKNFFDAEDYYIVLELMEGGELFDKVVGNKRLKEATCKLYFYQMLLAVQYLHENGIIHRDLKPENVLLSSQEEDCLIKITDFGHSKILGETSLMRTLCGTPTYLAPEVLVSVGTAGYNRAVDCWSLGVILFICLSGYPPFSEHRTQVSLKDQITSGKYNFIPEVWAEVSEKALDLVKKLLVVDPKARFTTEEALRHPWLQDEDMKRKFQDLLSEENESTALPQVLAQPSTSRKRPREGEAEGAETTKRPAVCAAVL

Question: How did the IC50 [1] turn out when `C[C@H](c1ccc(F)cc1)n1nnc2cnc3ccc(-c4ccc(N)nc4)cc3c21` was run?
Answer: 4 nM

Question: With `Cc1ccc(-c2ccc3ncc4nnn([C@H](C)c5ccccc5)c4c3c2)cn1` as the compound, how does the IC50 [1] read?
Answer: 35 nM

Question: With `COc1ccc([C@H](C)n2nnc3cnc4ccc(-c5ccc(N)nc5)cc4c32)cc1` as the compound, how does the IC50 [1] read?
Answer: 103 nM

Question: What does the source list for `CC(C)n1c(=O)n(C)c2cnc3cc(F)c(-c4ccc(OCCCN5CCCCC5)nc4)cc3c21`?
Answer: fold change (FC) [2]: 0.8; fold change (FC) [3]: 0.35; fold change (FC) [4]: 1.6; fold change (FC) [5]: 1.2; fold change (FC) [6]: 0.25; fold change (FC) [7]: 0.58; Activity (SW-620 [8]): Active; Activity (SW-620 [9]): inactive; fold change (FC) [10]: 0.6; fold change (FC) [11]: 1; Activity (SW-620 [12]): inactive; fold change (FC) [13]: 1.36; fold change (FC) [14]: 0.92; fold change (FC) [15]: 4.2; fold change (FC) [16]: 1.8; Activity (SW-620 [17]): Active; fold change (FC) [18]: 1.9; fold change (FC) [19]: 0.61; fold change (FC) [20]: 0.92; Activity (SW-620 [21]): Active; inhibition [22]: Dose-Dependent Effect; fold change (FC) [23]: 2.5; Activity (SW-620 [24]): Active; fold change (FC) [25]: 1.34; fold change (FC) [26]: 1; fold change (FC) [27]: 0.56

Question: For `C[C@H](c1ccccc1)n1nnc2cnc3ccc(-c4ccc(N)cc4)cc3c21`, which IC50 [1] is on record?
Answer: 15 nM

Question: For `Nc1ccc(-c2ccc3ncc4nnn(Cc5ccccc5)c4c3c2)cn1`, which IC50 [1] is on record?
Answer: 8 nM

Question: For `C[C@H](c1ccccc1)n1nnc2cnc3ccc(-c4ccc(O)nc4)cc3c21`, which IC50 [1] is on record?
Answer: 25 nM

Question: With `C[C@H](c1ccccc1)n1nnc2cnc3ccc(-c4ccc(OCCCN5CCCC5)nc4)cc3c21` as the compound, how does the IC50 [1] read?
Answer: 2 nM

Question: How did the IC50 [1] turn out when `CC[C@H](c1ccccc1)n1nnc2cnc3ccc(-c4ccc(N)nc4)cc3c21` was run?
Answer: 9 nM

Question: How did the IC50 [1] turn out when `C[C@H](c1ccccc1)n1nnc2cnc3ccc(-c4cccnc4)cc3c21` was run?
Answer: 9 nM

Question: How did the IC50 [1] turn out when `C[C@H](c1ccccc1)n1nnc2cnc3ccc(-c4ccc(OCCCN5CCCCC5)nc4)cc3c21` was run?
Answer: 2 nM

Question: With `C[C@H](c1ccccc1)n1nnc2cnc3ccc(-c4ccc(OCCN(C)C)nc4)cc3c21` as the compound, how does the IC50 [1] read?
Answer: 19 nM

Question: `CCc1c2c(nc3ccc(OC(=O)N4CCC(N5CCCCC5)CC4)cc13)-c1cc3c(c(=O)n1C2)COC(=O)[C@]3(O)CC` [IRINOTECAN] was tested. Which Activity (SW-620 [28]) did it give?
Answer: 21.89%

Question: And the IC50 (HCT-116)?
Answer: 910 nM

Question: And the Activity (SW-620 [29])?
Answer: 4.61%

Question: What about the IC50 (SW-620 [30]) of the same compound?
Answer: 140 nM

Question: What about the Activity (SW-620 [31]) of the same compound?
Answer: Active

Question: What about the viability at 1 µM (SW-620 [32]) of the same compound?
Answer: 67.3%

Question: And the inhibition [33]?
Answer: Active

Question: What about the Activity (SW-620 [34]) of the same compound?
Answer: 6.2%

Question: With `C[C@H](c1ccccc1)n1nnc2cnc3ccc(-c4ccc(O)cc4)cc3c21` as the compound, how does the IC50 [1] read?
Answer: 52 nM

Question: For `C[C@@H](c1ccc(F)cc1)n1nnc2cnc3ccc(-c4ccc(N)nc4)cc3c21`, which IC50 [1] is on record?
Answer: 250 nM

Question: For `C[C@H](c1ccccc1)n1nnc2cnc3ccc(-c4ccc(C(F)(F)F)nc4)cc3c21`, which IC50 [1] is on record?
Answer: 225 nM

Question: With `CC(C)n1nnc2cnc3ccc(-c4ccc(N)nc4)cc3c21` as the compound, how does the IC50 [1] read?
Answer: 20 nM

Question: Which IC50 [1] does the source give for `C[C@H](c1cccc(F)c1)n1nnc2cnc3ccc(-c4ccc(N)nc4)cc3c21` here?
Answer: 4 nM

Question: Which IC50 [1] does the source give for `C[C@H](c1ccccc1)n1nnc2cnc3ccc(-c4ccc(N5CCN(C)CC5)nc4)cc3c21` here?
Answer: 6 nM
